Measured values: patent US7041701B2, “Triterpenoid derivatives” (Univerzita Palackeho V Olomouci, priority 2000, dated 2006)

Legend:
[1] = tested on: K562 human promyelocytic leukemia; assay: MTT cytotoxicity assay, K562; assay type: cell-based; conditions: 72 hours, read-out: TCS50
Source text: (§1) One of the parameters used as the basis for colorimetric assays is the metabolic activity of viable cells. For example, a microtiter assay which uses the tetrazolium salt MTT is now widely used to quantitate cell proliferation and cytotoxicity [Hajdúch M, Mihál V, Minarík J, Fáber E, Safárová M, Weigl E, Antálek P.: Cytotechnology, 1996, 19, 243–245]. For instance, this assay is used in drug screening programs and in chemosensitivity testing. Because tetrazolium salts are cleaved only by metabolically active cells, these assays exclusively detect viable cells. In the case of the MTT assay, yellow soluble tetrazolium salt is reduced to a coloured water-insoluble formazan salt. After it is solubilized, the formazan formed can easily and rapidly be quantified in a conventional ELISA plate reader at 570 nm (maximum absorbancy). The quantity of reduced formazan corresponds to the number of vital cells in the culture. […]
(§2) The cell suspensions that were prepared and diluted according to the particular cell type and the expected target cell density (2,500–30,000 cells per well based on cell growth characteristics) were added by pipette (80 μl) into 96/well microtiter plates. […] Usually, test compounds were evaluated at six 4-fold dilutions. […] The tumour cell survival (TCS) was calculated using the following equitation: TCS=(ODdrug exposed well/mean ODcontrol wells)×100%. […]

[2] = tested on: CEM-DNR bulk human T-lymphoblastic leukemia, daunorubicin resistant; assay: MTT cytotoxicity assay, CEM-DNR bulk; assay type: cell-based; conditions: 72 hours, read-out: TCS50
Source text: as §1, §2

[3] = tested on: CEM cells; assay: Flow cytometry of total DNA content (cell cycle, apoptosis) in CEM cells; assay type: cell-based, human
Method: Hypophosphorylation of Rb protein is accompanied with cell cycle block on the G1/S transition. To investigate whether incubation of tumour cells with betulinines will result in cell cycle block and/or apoptosis, a flow-cytometry study was performed with measurement of total DNA content in CEM cells treated with/without I.3. Taxol (paclitaxel) was used as a positive control, since this drug is known to result in the cumulation of cells in the G2 phase.
Briefly, CEM cells were cultured in Dulbeco's modified essential medium with 4.5 g dextrose/l, 10% of foetal calf serum, 2 mM glutamine, 100 U/ml penicillin and 100 μg/ml streptomycin with/without the indicated concentrations of paclitaxel or I.3 (FIG. 4A). At selected time points, cells were harvested, washed in ice cold Hank's balanced salt solution (HBSS) and fixed in 70% ethanol at −20° C. overnight. The next day, ethanol was removed by centrifugation, cells were washed twice in HBSS and a cellular pellet (10^6 cells) was reconstituted in staining solution (propidium iodide 60 μg/ml, DNA-se free RNA-se 175 U/ml in HBSS) for 15 minutes at 37° C. The DNA content of individual cells was analyzed on flow cytometer Excalibur (Becton and Dickinson) at excitation wavelength of 488 nm.

[4] = tested on: K562-CdA human promyelocytic leukemia, cladrubin resistant; assay: MTT cytotoxicity assay, K562-CdA; assay type: cell-based; conditions: 72 hours, read-out: TCS50
Source text: as §1, §2

[5] = tested on: DU145 human prostate cancer, androgen independent, Rb−/−; assay: MTT cytotoxicity assay, DU145; assay type: cell-based; conditions: 72 hours, read-out: TCS50
Source text: as §1, §2

[6] = tested on: H3 histone (Lys9); assay: Histone acetylation, Western blot in CEM cells; assay type: cell-based, human
Method: CEM cells were cultured in Dulbeco's modified essential medium with 4.5 g dextrose/l, 10% of foetal calf serum, 2 mM glutamine, 100 U/ml penicillin and 100 μg/ml streptomycin with/without the indicated concentrations of HDAC inhibitor TSA or I.3. At selected time points, cells were harvested, washed in ice cold Hank's balanced salt solution and solubilized on ice using SDS-PAGE sample buffer containing protease and phosphatase inhibitors (10 μg/ml of leupeptin, 10 μg/ml of aprotinin, 10 μg/ml of soybean trypsin inhibitor, 100 μmol of benzamide, 1 mM of sodium vanadate, 1 mM of NaF, 1 mM of phenylphosphate) and boiled immediately.
Total cellular proteins (100 μg/well) were separated on SDS-PAGE electrophoresis, blotted on polyvinyldifluoride membranes and acetylated histone was detected using a anti-acetyl(Lys9)-histone H3 rabbit polyclonal antibody (Cell Signalling Technology, Beverly, Mass.; Cat# 9671L) and visualized by chemilumniuscence (ECL-Western Blotting System, Amersham). Details of the Western blot technique are described in Ausubel, F. M., Brent, R, Kingston, R. E., Moore, D. D., Seidman, J. G., Smith, J. A., Struhl, K. (Eds): Short Protocols in Molecular. Biology, 2nd edition, John Wiley & Sons, New York, Chichester, Brisbane, Toronto, Singapore, 1992, page 10–33–10–35.

[7] = tested on: K562-ARA-C human promyelocytic leukemia, cytarabin resistant; assay: MTT cytotoxicity assay, K562-ARA-C; assay type: cell-based; conditions: 72 hours, read-out: TCS50
Source text: as §1, §2

[8] = tested on: MCF-7 human breast cancer, estrogen dependent, p53+/+, Rb+/+; assay: MTT cytotoxicity assay, MCF-7; assay type: cell-based; conditions: 72 hours, read-out: TCS50
Source text: as §1, §2

[9] = tested on: human normal lymphocytes; assay: MTT cytotoxicity assay, normal lymphocytes; assay type: cell-based; conditions: 72 hours, read-out: TCS50
Source text: as §1, §2

[10] = tested on: CEM-DNR 1/C2 human T-lymphoblastic leukemia, daunorubicin resistant; assay: MTT cytotoxicity assay, CEM-DNR 1/C2; assay type: cell-based; conditions: 72 hours, read-out: TCS50
Source text: as §1, §2

[11] = tested on: B16F mouse melanoma, metastatic; assay: MTT cytotoxicity assay, B16F; assay type: cell-based; conditions: 72 hours, read-out: TCS50
Source text: as §1, §2

[12] = tested on: U2OS human osteosarcoma, p53+/−, Rb+/−; assay: MTT cytotoxicity assay, U2OS; assay type: cell-based; conditions: 72 hours, read-out: TCS50
Source text: as §1, §2

In the case of CC(=O)OC[C@@]1(C(=O)O)CC[C@]2(C)[C@H](CC[C@@H]3[C@@]4(C)CC[C@H](OC(C)=O)C(C)(C)[C@@H]4CC[C@]32C)C1=O [I.3, 3β,28-diacetoxy-18-oxo-19,20,21,29,30-pentanorlupan-22-oic acid], the IC50 [1] is reported as 200 nM, the IC50 [2] is reported as 1100 nM and the cell cycle distribution ([3]; propidium iodide flow cytometry (FIG. 4A)) is reported as “induces cumulation of cells in G0/G1 phases”. The “induction of apoptosis (sub-G1 cells)” value ([3]; propidium iodide flow cytometry (FIG. 4B)) was “rapid apoptosis”, the IC50 [4] was 300 nM and the IC50 [5] was 800 nM. For the same compound, the “time points showing histone acetylation” value ([6]; 2 μM (IC50)) was 45 to 120 min, the “time to appearance of acetylated histone” value ([6]; 20 μM (10×IC50)) was 30 min and the “acetylation of H3 histone in Lys9 position” value ([6]; Western blot (FIG. 5)) was “rapidly acetylated”. It also gave an IC50 [7] of 600 nM, an IC50 [8] of 2300 nM and an IC50 [9] of 13 µM. For the same compound, the IC50 [10] was 600 nM, the IC50 [11] was 4.7 µM and the IC50 [12] was 1500 nM.
